Calls of active or inactive are those of the source.
Tests used:
Protein skinhead-1 = molecular target: T1, Protein skinhead-1 (Caenorhabditis elegans, UniProt P34707); format: functional
T1 sequence (P34707 whole entry): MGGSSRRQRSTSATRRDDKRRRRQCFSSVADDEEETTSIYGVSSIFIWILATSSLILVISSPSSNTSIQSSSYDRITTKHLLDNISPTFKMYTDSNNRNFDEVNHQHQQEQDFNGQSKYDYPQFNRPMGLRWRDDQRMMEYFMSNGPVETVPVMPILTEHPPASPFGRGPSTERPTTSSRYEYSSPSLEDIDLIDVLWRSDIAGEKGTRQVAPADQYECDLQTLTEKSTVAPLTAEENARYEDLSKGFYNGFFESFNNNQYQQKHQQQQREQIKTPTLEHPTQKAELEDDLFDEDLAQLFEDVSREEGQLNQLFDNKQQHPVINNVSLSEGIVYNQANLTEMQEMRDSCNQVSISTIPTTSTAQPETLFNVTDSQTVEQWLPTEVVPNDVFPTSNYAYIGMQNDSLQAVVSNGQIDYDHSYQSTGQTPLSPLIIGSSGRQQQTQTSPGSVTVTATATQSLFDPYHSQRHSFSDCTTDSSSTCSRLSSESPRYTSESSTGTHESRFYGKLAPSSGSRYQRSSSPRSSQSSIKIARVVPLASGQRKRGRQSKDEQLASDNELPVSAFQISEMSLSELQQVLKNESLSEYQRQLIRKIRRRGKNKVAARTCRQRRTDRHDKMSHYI

[1] = Luminescence Cell-Based Dose Response HTS to Identify Activators of Luciferase Translation or Activity in H4 […] Cells. [Related pubchem assays: 1829 (Project Summary), 1814 (Primary HTS)]; format: functional
H4 = experiment: Luminescence Cell-Based Dose Response HTS to Identify Activators of 5'UTR Stem-Loop Driven Prion Protein mRNA Translation in H4 Neuroglioblastoma Cells. [Related pubchem assays: 1829 (Project Summary), 1814 (Primary HTS)]; format: functional; details: Homo sapiens
[2] = molecular target: T2, Corticotropin-releasing factor receptor 2/Corticotropin-releasing factor-binding protein (Homo sapiens, UniProt P24387+Q13324); experiment: Dose Response confirmation of uHTS hits for small molecule antagonists of the CRF-binding protein and CRF-R2 receptor complex.; format: functional; details: read-out: IC50_Mean
T2 sequence (Q13324 whole entry): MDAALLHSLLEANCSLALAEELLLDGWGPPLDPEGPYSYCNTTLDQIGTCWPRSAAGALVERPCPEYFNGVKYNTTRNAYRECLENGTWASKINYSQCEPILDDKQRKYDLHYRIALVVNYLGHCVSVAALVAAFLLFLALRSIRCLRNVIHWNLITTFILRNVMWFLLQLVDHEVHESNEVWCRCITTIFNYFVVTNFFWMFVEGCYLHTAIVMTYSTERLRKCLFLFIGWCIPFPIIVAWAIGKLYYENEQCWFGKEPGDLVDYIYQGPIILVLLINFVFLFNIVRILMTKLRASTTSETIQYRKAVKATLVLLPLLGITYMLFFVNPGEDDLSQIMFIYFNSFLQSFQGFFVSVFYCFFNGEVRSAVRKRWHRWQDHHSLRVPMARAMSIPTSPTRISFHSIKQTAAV
T2 sequence (P24387 whole entry): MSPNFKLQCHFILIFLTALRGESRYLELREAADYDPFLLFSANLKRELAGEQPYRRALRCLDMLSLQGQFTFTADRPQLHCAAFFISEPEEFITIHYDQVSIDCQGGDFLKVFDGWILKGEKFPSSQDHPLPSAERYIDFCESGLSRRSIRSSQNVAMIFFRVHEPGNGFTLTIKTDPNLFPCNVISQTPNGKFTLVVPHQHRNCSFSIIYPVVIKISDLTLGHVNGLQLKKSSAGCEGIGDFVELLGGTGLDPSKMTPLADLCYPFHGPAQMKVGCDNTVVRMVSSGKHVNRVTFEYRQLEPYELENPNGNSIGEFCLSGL

[3] = molecular target: T2, Corticotropin-releasing factor receptor 2/Corticotropin-releasing factor-binding protein; experiment: activators of CRF receptor 2 with binding protein – uHTS hits, confirmation (AID 602473); format: functional; details: read-out: EC50_Mean
Cytochrome P450 3A4 = Cytochrome P450 3A4 (Homo sapiens, UniProt P08684);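 note: CYP3A4 tested as one member of a cytochrome P450 panel screen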
Cytochrome P450 1A2 = molecular target: T3, Cytochrome P450 1A2 (Homo sapiens, UniProt P05177);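 note: PubChem cytochrome P450 panel assay, CYP1A2 panel member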
T3 sequence (P05177 whole entry): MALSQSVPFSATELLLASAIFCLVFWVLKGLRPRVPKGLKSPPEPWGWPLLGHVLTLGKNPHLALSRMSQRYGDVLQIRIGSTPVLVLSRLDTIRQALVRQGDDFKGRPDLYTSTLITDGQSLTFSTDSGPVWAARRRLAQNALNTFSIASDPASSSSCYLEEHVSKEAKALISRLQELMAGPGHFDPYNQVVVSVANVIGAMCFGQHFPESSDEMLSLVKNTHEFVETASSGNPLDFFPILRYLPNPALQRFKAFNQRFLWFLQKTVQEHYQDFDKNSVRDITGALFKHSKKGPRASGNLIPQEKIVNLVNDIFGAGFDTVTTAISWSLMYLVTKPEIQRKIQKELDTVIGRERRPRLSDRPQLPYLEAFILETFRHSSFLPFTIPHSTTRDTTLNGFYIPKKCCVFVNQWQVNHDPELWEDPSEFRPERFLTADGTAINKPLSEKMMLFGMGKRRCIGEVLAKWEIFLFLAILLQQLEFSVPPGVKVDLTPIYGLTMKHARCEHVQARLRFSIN

[4] = molecular target: T4, Rac GTPase-activating protein 1 (Homo sapiens, UniProt Q9H0H5); experiment: MgcRacGAP GTPase-activating activity inhibitors, confirmation, biochemical, ADP Hunter fluorescence, primary and confirmatory (AID 624330); format: functional
T4 sequence (Q9H0H5 whole entry): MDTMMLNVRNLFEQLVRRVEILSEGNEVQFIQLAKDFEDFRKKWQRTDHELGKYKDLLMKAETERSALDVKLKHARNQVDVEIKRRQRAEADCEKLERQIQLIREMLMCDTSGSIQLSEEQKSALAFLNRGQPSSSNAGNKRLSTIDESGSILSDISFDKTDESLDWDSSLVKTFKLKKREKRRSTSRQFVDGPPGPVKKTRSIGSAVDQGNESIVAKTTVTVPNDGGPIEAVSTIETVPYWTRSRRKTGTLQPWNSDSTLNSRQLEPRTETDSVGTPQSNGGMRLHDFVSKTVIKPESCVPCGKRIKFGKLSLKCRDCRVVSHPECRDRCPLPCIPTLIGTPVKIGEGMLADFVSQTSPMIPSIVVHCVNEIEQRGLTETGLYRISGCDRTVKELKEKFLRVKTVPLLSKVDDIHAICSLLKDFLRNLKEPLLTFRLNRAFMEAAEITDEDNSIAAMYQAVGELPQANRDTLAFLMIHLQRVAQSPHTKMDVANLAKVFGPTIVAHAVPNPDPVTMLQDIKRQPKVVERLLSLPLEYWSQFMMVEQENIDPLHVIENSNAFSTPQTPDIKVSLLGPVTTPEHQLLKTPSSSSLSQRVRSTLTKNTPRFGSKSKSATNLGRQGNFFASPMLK

[5] = HEp-2 cell cytotoxicity, dose response, cytotoxicity control for RSV inhibitor project, HTS (AID 2410); format: functional; details: human respiratory syncytial virus
[6] = inhibitors of intracellular T. cruzi replication, confirmation, NIH3T3 host cells, beta-gal luminescence (AID 2044); format: functional, cell-based;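 note: intracellular parasites grown in NIH/3T3 mouse fibroblasts as host cells; luminescent beta-galactosidase reporter signal from transgenic T. cruzi replicating inside host cells; inhibitors lower the luminescence signal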
[7] = cytotoxicity toward NIH3T3 fibroblasts, dose response, counter-screen, cell-based, ATP luminescence, mouse fibroblasts (AID 2010); format: functional;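 note: cells exposed to compound for about 90 hours before reading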
[8] = Shn3 3'UTR reporter inhibitors, dose response, cell-based, Clone20 osteoblasts, firefly luciferase, cherry-picked (AID 624132); format: functional;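 note: firefly luciferase luminescence from reporter carrying the Shn3 3'UTR in osteoblasts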

Cytochrome P450 3A4, sequence (P08684 whole entry): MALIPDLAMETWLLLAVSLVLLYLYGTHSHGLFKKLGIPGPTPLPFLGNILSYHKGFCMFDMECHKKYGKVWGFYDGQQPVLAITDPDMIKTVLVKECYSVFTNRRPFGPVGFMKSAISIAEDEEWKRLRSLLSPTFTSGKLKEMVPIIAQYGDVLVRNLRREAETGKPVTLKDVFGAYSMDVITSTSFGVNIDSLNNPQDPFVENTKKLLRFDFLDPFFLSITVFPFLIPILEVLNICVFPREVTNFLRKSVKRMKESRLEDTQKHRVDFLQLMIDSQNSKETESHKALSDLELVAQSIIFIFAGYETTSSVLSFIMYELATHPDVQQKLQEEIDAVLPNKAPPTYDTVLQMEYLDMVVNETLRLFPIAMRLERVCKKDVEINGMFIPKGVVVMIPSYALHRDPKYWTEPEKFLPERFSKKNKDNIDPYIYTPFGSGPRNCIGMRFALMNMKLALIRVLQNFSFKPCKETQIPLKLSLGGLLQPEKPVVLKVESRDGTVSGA

O=C(Nc1ccc(N2CCCCC2)cc1)c1ccc2ccccc2n1
IC50 (Protein skinhead-1): > 100 µM (inactive)

c1ccc(CNC2=NN=C(c3ccccc3)CS2)cc1
EC50 [1]: 0.293 µM (active)
EC50 (H4): 24.2 µM (active)

COc1ccc(N2C(=O)CC(Sc3nc(C)cc(C)c3C#N)C2=O)cc1 (stereo not given)
EC50 [1]: 14.6 µM (active)
EC50 (H4): 25.4 µM (active)

N#C/C(=C(/O)COC(=O)COc1cccc(Br)c1)c1nc2ccccc2[nH]1
IC50 [2]: > 47.1 µM (inactive)
EC50 [3]: > 53 µM (inactive)

Cc1c(C)c2c(c(C)c1O)CC[C@@](C)(C(=O)O)O2
AC50 (Cytochrome P450 3A4): 12.6 µM (inconclusive)
AC50 (Cytochrome P450 1A2): 20 µM (inconclusive)

COCCNC(=O)CC(c1ccccc1)c1ccccc1
IC50 (Protein skinhead-1): > 100 µM (inactive)

O=C(Nc1ccccc1)N1CC[C@@]2(CCCN(C(=O)Oc3ccccc3)C2)C1
AC50 (Cytochrome P450 3A4): 25.1 µM (inconclusive)
AC50 (Cytochrome P450 1A2): 15.8 µM (inconclusive)

O=C(Nc1ccc(OC(F)F)c(Cl)c1)c1cccc(OC(F)F)c1
IC50 (Protein skinhead-1): 48.3 µM (active)

CCOc1nc(C)ccc1-c1noc(-c2ccccn2)n1
IC50 [2]: > 47.1 µM (inactive)
EC50 [3]: > 53 µM (inactive)

COC(=O)c1sc2ccccc2c1-n1cccc1C(=O)C(=O)Nc1ccc(Cl)cc1
AC50 (Cytochrome P450 3A4): 14.1 µM (inconclusive)
AC50 (Cytochrome P450 1A2): 2.82 µM (inconclusive)

O=C(C(c1ccccc1)c1ccccc1)N1CCN(CCN2C(=O)c3cccc4cccc(c34)C2=O)CC1
IC50 [2]: > 47.1 µM (inactive)
EC50 [3]: > 53 µM (inactive)

CCCN1Cc2cccc(C(=O)NCc3cccs3)c2C1=O
IC50 [2]: > 47.1 µM (inactive)
EC50 [3]: > 53 µM (inactive)

CCn1c(=O)n(CC)c2cc(N3CCCC3)c(NC(=O)c3ccccc3)cc21
IC50 [4]: 91 µM (active)

O=C(O)Cn1cc(/C=C2\C(=O)NC(=O)N(c3ccc(Cl)cc3)C2=O)c2ccccc21
IC50 [4]: 255 µM (active)

c1ccc(-c2csc(N3CCN(c4ccccn4)CC3)n2)cc1
IC50 (Protein skinhead-1): 26.5 µM (active)

c1cncc(-c2nn3c(Cn4nnc5ccccc54)nnc3s2)c1
CC50 [5]: > 50 µM (active)

CCOC(=O)c1ccc(Nc2nnc(C(C)(C)C)c(O)n2)cc1
IC50 (Protein skinhead-1): > 100 µM (inactive)

O=C(c1ccc(NS(=O)(=O)c2cccc([N+](=O)[O-])c2)cc1)N1CCCCCC1
IC50 [2]: > 47.1 µM (inactive)
EC50 [3]: > 53 µM (inactive)

Cc1ccnc(NC(=O)c2ccc(NC(=O)c3ccco3)cc2)c1
EC50 [1]: 1.37 µM (active)
EC50 (H4): 11.9 µM (active)

Clc1ccccc1-c1nnc(-c2ccccc2Cl)o1
IC50 (Protein skinhead-1): 53.8 µM (inactive)

COC(=O)c1sccc1-c1ccc(C(N)=O)o1
CC50 [5]: 44 µM (active)

Clc1ccc2nc(N3CCCCC3)sc2c1
IC50 (Protein skinhead-1): 29.2 µM (active)

CN1CCN(c2ncc3nc(-c4cc(F)cc(F)c4)c(=O)n(Cc4cccs4)c3n2)CC1
AC50 (Cytochrome P450 3A4): 25.1 µM (inconclusive)
AC50 (Cytochrome P450 1A2): 6.31 µM (inconclusive)

CCCC[C@@H]1C[C@H]1C(NC(=O)c1ccccc1)c1ccccc1C(F)(F)F (stereo not given in full)
AC50 (Cytochrome P450 3A4): 3.16 µM (inconclusive)
AC50 (Cytochrome P450 1A2): 10 µM (inconclusive)

CCc1cc(-c2[nH]nc(CCC(=O)O)c2-c2nc3ccccc3n2C)c(O)cc1O
IC50 [4]: 122 µM (active)

Cc1cc(C)c(S(=O)(=O)n2ccc3ccccc32)c(C)c1
IC50 [2]: > 47.1 µM (inactive)
EC50 [3]: > 53 µM (inactive)

O=C(Nc1ccccc1)c1sccc1Oc1ccc([N+](=O)[O-])cc1F
IC50 [2]: > 47.1 µM (inactive)
EC50 [6]: 1.42 µM (active)
EC50 [3]: > 53 µM (inactive)
EC50 [7]: > 60 µM (not active)

O=C(Nc1nc(-c2ccc(Cl)cc2)cs1)NC1CCCCC1
CC50 [5]: 20.3 µM (active)

c1cc(CN2CCN(C3CCCCCC3)CC2)ccn1
IC50 [4]: 92 µM (active)

CCC(C)C1N=C(c2ccccc2)c2cc(Cl)ccc2N(CC(=O)NCc2ccco2)C1=O (stereo not given)
IC50 [2]: > 47.1 µM (inactive)
EC50 [3]: > 53 µM (inactive)

Cc1ccc(C2(C)NC(=O)N(CC(=O)Nc3ccc(-c4nc5ccc(C)cc5s4)cc3)C2=O)cc1 (stereo not given)
CC50 [5]: 41.5 µM (active)

Clc1cccc(CSc2ncn(-c3ccccc3)n2)c1
IC50 (Protein skinhead-1): 24.7 µM (active)

COC(C(=O)Nc1ccc(F)cc1)c1ccccc1 (stereo not given)
IC50 [2]: > 47.1 µM (inactive)
EC50 [3]: > 53 µM (inactive)

Cc1nn2c(N)c(-c3ccccc3)cnc2c1-c1ccc(Cl)cc1
IC50 [2]: > 47.1 µM (inactive)
EC50 [3]: > 53 µM (inactive)

COc1ccc(CN(C(=O)CSc2nnc(-c3ccc(F)cc3)o2)c2ccc(F)cc2)cc1
AC50 [8]: 43.4 µM (active)

O=C(Nc1ccc2c(c1)Cc1ccccc1-2)c1ccco1
IC50 (Protein skinhead-1): > 100 µM (inactive)

O=C(COC(=O)C12CC3CC(CC(O)(C3)C1)C2)Nc1cccc(Br)c1
IC50 (Protein skinhead-1): > 100 µM (inactive)

OCc1cccc(-c2csc(C(O)(c3ccccc3)C(F)(F)F)n2)c1 (stereo not given)
IC50 (Protein skinhead-1): > 100 µM (inactive)

Cc1ccccc1NC(=O)Cc1nc(COC(=O)c2cccc(O)c2)cs1
IC50 (Protein skinhead-1): > 100 µM (inactive)

CC(=O)Nc1ccc(OCC[n+]2cccc(C(N)=O)c2)cc1
IC50 [2]: > 47.1 µM (inactive)
EC50 [3]: > 53 µM (inactive)

CCC/C(=N\NC(=O)C1CC1)c1ccccc1
IC50 [2]: > 47.1 µM (inactive)
EC50 [3]: > 53 µM (inactive)

C=CCOc1nc2c(c(=O)n(Cc3ccc(Cl)c(Cl)c3)c(=O)n2C)n1C
IC50 [2]: > 47.1 µM (inactive)
EC50 [3]: > 53 µM (inactive)

— ChEMBL document CHEMBL1201862, “PubChem BioAssay data set” (2004)
